Among the data in US8334364B2, “High-molecular weight derivative of nucleic acid antimetabolite” (priority 2006, dated 2012) are Relative tumor volume values, retold here.

Structures are written as SMILES. Where a name gives a salt, the structure may show the parent alone.

Experiment [1] concerns mouse colon cancer, Colon26. Kind of experiment: Antitumor effect against tumor-bearing mouse (2). The note with it: once intravenously, 8th day after initiation of administration, average ± SD, volume on day of initiation = 1.0. In kind it is in vivo. From the text:
Tumor of mouse colon cancer, Colon26, maintained by serial subcutaneous subculture in mice, was minced into about 2-mm square blocks, and the blocks were transplanted subcutaneously on the dorsal part of a mouse. On the 7th day after tumor transplantation, the compound of Example 3 (indicated as Compound 3 in Table 3) and the compound of Example 4 (indicated as Compound 4 in Table 3), respectively dissolved in physiological saline, and gemcitabine hydrochloride as a control drug dissolved in a 5% glucose injection solution were respectively administered once intravenously at the doses indicated in Table 3. The tumor volumes on the day of initiation of administration and on the 8th day after the initiation of administration were calculated in the same manner as in Test Example 3, and the relative tumor volumes on the day of initiation of administration and on the 8th day after the initiation of administration were determined.

Experiment [2] concerns mouse colon cancer, Colon26. Kind of experiment: Antitumor effect against tumor-bearing mouse (1). The experiment is classed as in vivo. The note with it: once intravenously, 7th day after initiation of administration, average ± SD, volume on day of initiation = 1.0. From the text:
Tumor of mouse colon cancer, Colon26, maintained by serial subcutaneous subculture in mice, was minced into about 2-mm square blocks, and the blocks were transplanted subcutaneously on the dorsal part of a mouse using a trocar. On the 7th day after tumor transplantation, the compound of Example 1 (indicated as Compound 1 in Table 2) and the compound of Example 2 (indicated as Compound 2 in Table 2), respectively dissolved in physiological saline, and gemcitabine hydrochloride as a control drug dissolved in a 5% glucose injection solution were respectively administered once intravenously at the doses indicated in Table 2. The tumor volumes on the day of initiation of administration and on the 7th day after the initiation of administration were calculated by the following equation, and the relative tumor volumes on the day of initiation of administration and on the 7th day after the initiation of administration were determined.

[3] abbreviates: dose 200 mg/kg in terms of gemcitabine hydrochloride.

As for `Nc1ccn([C@@H]2O[C@H](CO)[C@@H](O)C2(F)F)c(=O)n1` [Control drug, gemcitabine hydrochloride], the Relative tumor volume came to 5.3 ± 1.1 in experiment [1] (dose 40 mg/kg in terms of gemcitabine hydrochloride), 4.8 ± 1.7 in experiment [1] (setting [3]), 3.9 ± 0.5 in experiment [2] (dose 100 mg/kg in terms of gemcitabine hydrochloride) and 3.4 ± 0.6 in experiment [2] (setting [3]).
